# Tests used:
# [1] = test system: serum IgG anti-17-α-hydroxyprogesterone antibodies; assay: ELISA binding of IgG 17-α-hydroxyprogesterone antibodies to different hormones in solid phase; parameters: species or system human; conditions: for IgG binding (optical density): hormone in solid phase, 405 nm; for IgG % reaction: relative to 17-α-hydroxyprogesterone = 100
# Description: (§1) The ELISA inhibition method was used to determine specificity and cross-reactivity between different hormones and to ensure the degree of human IgG, IgM and IgE estrogen or progesterone binding to estrogen or progesterone in solid phase. […] 100 μl of sera from three different patients with high IgG, IgM or IgE antibodies against 17-α-hydroxyprogesterone was added to all wells. After shaking and incubation for 1 hr at room temperature, addition of enzyme labeled anti-human IgG, IgM or IgE, repeat of incubation, washing, and addition of substrate, color development was measured at 405 nm. Results were calculated as percentage of anti-17-α-hydroxyprogesterone binding to 17-α-hydroxyprogesterone and other hormones. Also, anti-estrogen binding to estrogen and other hormones in solid phase by progesterone in liquid phase was performed and calculated in a similar manner.
# (§2) Human sera containing 17-α-hydroxyprogesterone IgG-, IgM- and IgE-binding antibodies were reacted against progesterone, estrogen, hydrocortisone and cholesterol. In comparison to 100% binding of anti-17-α-hydroxyprogesterone-binding to 17-α-hydroxyprogesterone, the IgG anti-17-α-hydroxyprogesterone-binding to progesterone, estrogen, hydrocortisone and cholesterol was 69-77%, 25-30%, 39-53%, and less than 10% respectively (Table 4). The % binding of serum IgM and IgE anti-17-α-hydroxyprogesterone to 17-1-hydroxyprogesterone, progesterone, estrogen, hydrocortisone and cholesterol was similar to the binding of IgG. This binding of anti-17-α-hydroxyprogesterone to progesterone was the highest, followed by hydrocortisone, then estrogen, to almost no binding with cholesterol. Similar to this, human sera with IgG, IgM and IgE binding antibodies against estrogen were reacted with progesterone, 17-α-hydroxyprogesterone, hydrocortisone and cholesterol, in the presence of estrogen.
# [2] = test system: serum IgG anti-estrogen antibodies; assay: Competition ELISA: absorption of serum IgG anti-estrogen with specific and non-specific antigens; assay type: binding, human; conditions: for IgG level after absorption: absorption with 250 μg/mL, optical density 405 nm
# Description: (§3) For this, microtiter plates were coated with hormones and blocked by the addition of 2% BSA in PBST. 100 μl of serum diluent buffer was added to all wells. […] After 60 minutes incubation 100 μl serum anti-estrogen or anti-progesterone was added to all wells. […] Results were calculated as percentage of inhibition in antigen-antibody reaction.
# (§4) To examine whether antibodies to estrogen or progesterone are specific or cross-reactive, we performed competition ELISA by adding specific and non-specific antigens in liquid phase and examined prevention of serum antibody binding to the antigen in solid phase. […] For IgE anti-estrogen, this inhibition by estrogen-BSA was between 54-62%, and with progesterone-BSA, from 37-43%. […] This cross-reaction between estrogen and progesterone antibodies may be due to structural similarities between these two hormones.
# [3] = test system: serum IgE anti-estrogen antibodies; assay: ELISA binding of IgE estrogen antibodies to different hormones in solid phase; parameters: species or system human; conditions: for IgE binding (optical density): hormone in solid phase, 405 nm; for IgE % reaction: relative to estrogen = 100
# Description: as §1, §2
# [4] = test system: patients experiencing hormone allergy symptoms; assay: Clinical responses of hormone allergy symptoms to intradermal dilute progesterone (or estrogen); assay type: in vivo, human; conditions: 0.4 mg intradermally
# Description: Patients experiencing several hormone allergy symptoms experienced relief when administered dilute doses of progesterone either sublingually or intradermally.
# The symptoms measured were irritation or pain in the neck, nose, eyes, throat, ear, skin, back, hips, upper extremities and lower extremities, headache, and shortness of breath. […]
# Patients were designated as responding patients in Table 1 if they experienced any relief of the indicated symptom. Patients were also asked to estimate the amount of improvement in the symptom, an average of which is
# In Table 2 the probability that positive results (i.e. patients responding to treatment) were due to random effects was calculated using standard statistical analysis of patient tests. It was assumed that if the treatment has no effect, there is a 50% chance that a patient will indicate a positive response and a 50% chance that a patient will indicate a negative response. From this assumption, coupled with the actual data, one may calculate the probability that positive responses are due to an actual effect of the treatment and not simply random effects. In general, results with a less than 1% chance of being random are considered highly significant. Results with a less than 5% chance of being random are normally conclusively labeled as nonrandom. Thus, the results observed for most of the symptoms in Table 2 are highly significant, with only the results for ear irritation and pain falling merely in the nonrandom category.
# Hormone samples may be prepared in any way suitable for the intended administration route. For administration through intradermal injection, samples may be prepared as they were in the studies of Examples 2 and 3. Specifically, the progesterone was formulated from commercially available injectable progesterone. Each ml of the final formulation contained […] of progesterone and 10% benzyl alcohol as a preservative in sesame oil. 0.1 ml was administered per patient intradermally. Estrogen samples were similarly prepared.
# [5] = test system: serum IgM anti-estrogen antibodies; assay: ELISA binding of IgM estrogen antibodies to different hormones in solid phase; parameters: species or system human; conditions: for IgM binding (optical density): hormone in solid phase, 405 nm; for IgM % reaction: relative to estrogen = 100
# Description: as §1, §2
# [6] = test system: serum IgM anti-17-α-hydroxyprogesterone antibodies; assay: ELISA binding of IgM 17-α-hydroxyprogesterone antibodies to different hormones in solid phase; parameters: species or system human; conditions: for IgM binding (optical density): hormone in solid phase, 405 nm; for IgM % reaction: relative to 17-α-hydroxyprogesterone = 100
# Description: as §1, §2
# [7] = test system: serum IgG anti-estrogen antibodies; assay: ELISA binding of IgG estrogen antibodies to different hormones in solid phase; parameters: species or system human; conditions: for IgG binding (optical density): hormone in solid phase, 405 nm; for IgG % reaction: relative to estrogen = 100
# Description: as §1, §2
# [8] = test system: serum IgE anti-17-α-hydroxyprogesterone antibodies; assay: ELISA binding of IgE 17-α-hydroxyprogesterone antibodies to different hormones in solid phase; parameters: species or system human; conditions: for IgE binding (optical density): hormone in solid phase, 405 nm; for IgE % reaction: relative to 17-α-hydroxyprogesterone = 100
# Description: as §1, §2
# [9] = test system: serum IgE anti-estrogen antibodies; assay: Competition ELISA: absorption of serum IgE anti-estrogen with specific and non-specific antigens; assay type: binding, human; conditions: for IgE level after absorption: absorption with 250 μg/mL, optical density 405 nm
# Description: as §3, §4
# [10] = antigen in liquid phase, over the three sera
# [11] = relative to estrogen, over three sera
substance,measurement,setting,value
estrogen,IgG anti-17-α-hydroxyprogesterone binding,"[1]; in comparison to 100% binding to 17-α-hydroxyprogesterone, over three sera",25-30%
same,IgG binding (optical density),[1]; sample 1,0.48
same,IgG % reaction,[1]; sample 1,−30%
same,IgG binding (optical density),[1]; sample 2,0.24
same,IgG % reaction,[1]; sample 2,−25%
same,IgG binding (optical density),[1]; sample 3,0.18
same,inhibition of anti-estrogen binding to estrogen (IgG),[2]; [10],did not significantly absorb
same,IgG level after absorption,"[2]; serum sample 1, before absorption 1.83",1.53
same,IgG level after absorption,"[2]; serum sample 2, before absorption 1.25",0.95
same,IgG level after absorption,"[2]; serum sample 3, before absorption 0.76",0.54
same,IgE anti-estrogen binding,[3]; [11],100%
same,IgE binding (optical density),[3]; sample 1,0.8
same,IgE % reaction,[3]; sample 1,−100%
same,IgE binding (optical density),[3]; sample 2,1.5
same,IgE % reaction,[3]; sample 2,−100%
same,IgE binding (optical density),[3]; sample 3,1.6
same,IgE % reaction,[3]; sample 3,−100%
same,symptom relief in patients not relieved by progesterone treatment,[4],experience relief
same,IgM anti-estrogen binding,[5]; [11],100%
same,IgM binding (optical density),[5]; sample 1,0.9
same,IgM % reaction,[5]; sample 1,−100%
same,IgM binding (optical density),[5]; sample 2,2.1
same,IgM % reaction,[5]; sample 2,−100%
same,IgM binding (optical density),[5]; sample 3,1.3
same,IgM % reaction,[5]; sample 3,−100%
same,IgM binding (optical density),[6]; sample 1,0.4
same,IgM % reaction,[6]; sample 1,−31%
same,IgM binding (optical density),[6]; sample 2,0.41
same,IgM % reaction,[6]; sample 2,−25%
same,IgM binding (optical density),[6]; sample 3,0.29
same,IgM % reaction,[6]; sample 3,−32%
same,IgG anti-estrogen binding,[7]; [11],100%
same,IgG binding (optical density),[7]; sample 1,1.2
same,IgG % reaction,[7]; sample 1,−100%
same,IgG binding (optical density),[7]; sample 2,1.8
same,IgG % reaction,[7]; sample 2,−100%
same,IgG binding (optical density),[7]; sample 3,0.92
same,IgG % reaction,[7]; sample 3,−100%
same,IgE binding (optical density),[8]; sample 1,0.42
same,IgE % reaction,[8]; sample 1,−29%
same,IgE binding (optical density),[8]; sample 2,0.75
same,IgE % reaction,[8]; sample 2,−31%
same,IgE binding (optical density),[8]; sample 3,0.37
same,IgE % reaction,[8]; sample 3,−25%
same,inhibition of IgE anti-estrogen binding,[9]; [10],did not significantly absorb
same,IgE level after absorption,"[9]; serum sample 1, before absorption 2.15",1.70
same,IgE level after absorption,"[9]; serum sample 2, before absorption 1.66",1.30
same,IgE level after absorption,"[9]; serum sample 3, before absorption 1.34",0.86

# — patent US20060025390A1, “Treatment of hormone allergy and related symptoms and disorders” (priority 2004, published 2006)
